Test results taken from patent publication US20260217701A1, “SELECTIVE BET INHIBITORS AND USES THEREOF” (Tay Therapeutics Limited, priority 2022, published 2026).
“And” between values parts separate entries of the source, which are not always exact repeats. Equal entries are not always repeated.

Experiment: Rat PK study #3 (ABBV-744 IV 1 mg/kg and PO 5 mg/kg)
Format: in vivo, SD rats
Parameters: Tmax: unit: h
Details: for concentration at 0.033 h: male, Sprague-Dawley, rat, plasma, iv
Protocol: For the third rat pharmacokinetic study, the pharmacokinetics of ABBV-744 were assessed in male SD rats for comparison to Compound A. ABBV-744 was prepared in a formulation of 5% DMSO, 40% PEG-400, and 55% Milli-Q water (see Table 2D for formulation) and delivered to animals orally (PO) at a dose of 5 mg/kg, or intravenously (IV) at a dose of 1 mg/kg. Animals in each group (n=3) were then monitored over a 24-hour period.
Blood samples (~0.2 mL) were collected according to a schedule (IV administration: 0.033, 0.083, 0.25, 0.5, 1, 2, 4, and 8 h following the initial dosing; PO administration: 0.083, 0.25, 0.5, 1, 2, 4, 8, and 24 h following the initial dosing) by jugular vein by cannulation except for the dosing vein (for IV group), and EDTA-K2 was used as anticoagulant. Within 30 minutes of collection, the samples were centrifuged at approximately 4000 times g-force for 5 minutes at 4° C. to obtain blood plasma. The plasma samples were immediately divided into two aliquots (~75 µL each), transferred to a cryogenic vial, and stored in a freezer at −75±15° C. prior to analysis.
The concentration of ABBV-744 in plasma samples was determined by liquid chromatography-mass spectrometry (LC-MS/MS) using a Shimadzu HPLC(DGU-405; LC-40D XS CN; SIL-40C XSCN; Plate Changer CN; CTO-40C CN; and CBM-40 CN) and an AB API 5500+LC/MS/MS instrument. Samples were analyzed on an Agilent Poroshell Bonus RP 2.7 μm (50×2.1 mm) column. Solution A in the mobile phase was 95% water (0.1% formic acid) and solution B was 95% acetonitrile in water (0.1% formic acid), injection volume was 6 μL, and flow rate was 0.6 mL/min.
To prepare samples for analysis, serial concentrations were prepared by diluting the stock solution of analyte with a 50% acetonitrile in water solution. 5 μL working solutions (5, 10, 20, 50, 100, 500, 1000, 5000, and 10000 ng/mL) were added to 50 μL of the blank SD rat plasma to achieve calibration standards of ~0.5 to 1000 ng/ml (0.5, 1, 2, 5, 10, 50, 100, 500, and 1000 ng/ml) in a total volume of 55 μL. Five quality control samples at 1 ng/ml, 2 ng/ml, 5 ng/ml, 50 ng/mL, and 800 ng/ml for plasma were prepared independently of those used for the calibration curves. These QC samples were prepared on the day of analysis in the same way as calibration standards.
55 μL of standards, 55 μL of QC samples and 55 μL of unknown samples (50 μL of unknown rat plasma with 5 µL of blank solution) were added to 200 µL of acetonitrile containing IS mixture (verapamil) for precipitating protein respectively. The samples were then vortexed for 30 s. After centrifugation at 4° C., 3900 rpm for 15 min, the supernatant was diluted 3 times with water. 6 μL of diluted supernatant was injected into the LC/MS/MS system for quantitative analysis.

[1] = SD rats, IV 1 mg/kg, DMSO/PEG-400/Milli-Q water formulation, individual animals, 1 mg/kg
[2] = SD rats, IV 1 mg/kg, DMSO/PEG-400/Milli-Q water formulation, mean of 3 animals
[3] = SD rats, PO 5 mg/kg, DMSO/PEG-400/Milli-Q water formulation, individual animals, 5 mg/kg

Compound: CCNC(=O)c1cc2c(-c3cc(C(C)(C)O)ccc3Oc3c(C)cc(F)cc3C)cn(C)c(=O)c2[nH]1 [ABBV-744]
- exposure above the free EC50 BD2 BRD4 (5 mg/kg dose): minimal
- Clinical observations (IV 1 mg/kg and PO 5 mg/kg): No clinical observations were noted
- Plasma Concentration (SD rats, IV 1 mg/kg, DMSO/PEG-400/Milli-Q water formulation, 0.033 h, individual animals, 1 mg/kg): 484 ng/mL and 489 ng/mL
- Plasma Concentration (SD rats, IV 1 mg/kg, DMSO/PEG-400/Milli-Q water formulation, 0.083 h, individual animals, 1 mg/kg): 308 ng/mL and 353 ng/mL
- Plasma Concentration (SD rats, IV 1 mg/kg, DMSO/PEG-400/Milli-Q water formulation, 0.25 h, individual animals, 1 mg/kg): 267 ng/mL and 289 ng/mL
- Plasma Concentration (SD rats, IV 1 mg/kg, DMSO/PEG-400/Milli-Q water formulation, 0.5 h, individual animals, 1 mg/kg): 217 ng/mL and 202 ng/mL
- Plasma Concentration (SD rats, IV 1 mg/kg, DMSO/PEG-400/Milli-Q water formulation, 1 h, individual animals, 1 mg/kg): 147 ng/mL and 158 ng/mL
- Plasma Concentration (SD rats, IV 1 mg/kg, DMSO/PEG-400/Milli-Q water formulation, 2 h, individual animals, 1 mg/kg): 116 ng/mL and 110 ng/mL
- Plasma Concentration (SD rats, IV 1 mg/kg, DMSO/PEG-400/Milli-Q water formulation, 4 h, individual animals, 1 mg/kg): 55.9 ng/mL and 54.8 ng/mL
- Plasma Concentration (SD rats, IV 1 mg/kg, DMSO/PEG-400/Milli-Q water formulation, 8 h, individual animals, 1 mg/kg): 18.3 ng/mL and 15.0 ng/mL
- AUCInf [1]: 750 ng·h/mL and 728 ng·h/mL
- AUC_%Extrap_obs [1]: 5.41% and 8.03% and 6.23%
- AUClast [1]: 690 ng·h/mL and 683 ng·h/mL
- C0 [1]: 652 ng/mL and 606 ng/mL
- Cl_obs [1]: 24.9 mL/min/kg and 22.2 mL/min/kg and 22.9 mL/min/kg
- MRTInf_obs [1]: 2.88 h and 2.61 h
- T1/2 [1]: 2.28 h and 2.09 h
- Vss_obs [1]: 3.69 L/kg and 3.84 L/kg and 3.59 L/kg
- AUC_%Extrap_obs [2]: 6.56%
- Cl_obs [2]: 23.3 mL/min/kg
- Vss_obs [2]: 3.71 L/kg
- Plasma Concentration (SD rats, PO 5 mg/kg, DMSO/PEG-400/Milli-Q water formulation, 0.083 h, individual animals, 5 mg/kg): 0.00 ng/mL and 1.03 ng/mL and 3.81 ng/mL
- Plasma Concentration (SD rats, PO 5 mg/kg, DMSO/PEG-400/Milli-Q water formulation, 0.25 h, individual animals, 5 mg/kg): 2.95 ng/mL and 6.42 ng/mL and 48.5 ng/mL
- Plasma Concentration (SD rats, PO 5 mg/kg, DMSO/PEG-400/Milli-Q water formulation, 0.5 h, individual animals, 5 mg/kg): 7.91 ng/mL and 21.1 ng/mL and 100 ng/mL
- Plasma Concentration (SD rats, PO 5 mg/kg, DMSO/PEG-400/Milli-Q water formulation, 1 h, individual animals, 5 mg/kg): 16.7 ng/mL and 41.0 ng/mL and 118 ng/mL
- Plasma Concentration (SD rats, PO 5 mg/kg, DMSO/PEG-400/Milli-Q water formulation, 2 h, individual animals, 5 mg/kg): 31.9 ng/mL and 78.0 ng/mL and 157 ng/mL
- Plasma Concentration (SD rats, PO 5 mg/kg, DMSO/PEG-400/Milli-Q water formulation, 4 h, individual animals, 5 mg/kg): 40.6 ng/mL and 101 ng/mL and 239 ng/mL
- Plasma Concentration (SD rats, PO 5 mg/kg, DMSO/PEG-400/Milli-Q water formulation, 8 h, individual animals, 5 mg/kg): 54.6 ng/mL and 70.6 ng/mL and 214 ng/mL
- Plasma Concentration (SD rats, PO 5 mg/kg, DMSO/PEG-400/Milli-Q water formulation, 24 h, individual animals, 5 mg/kg): 0.909 ng/mL and 1.09 ng/mL and 4.52 ng/mL
- AUClast [3]: 739 ng·h/mL and 1175 ng·h/mL and 3265 ng·h/mL
- Cmax [3]: 54.6 ng/mL and 101 ng/mL and 239 ng/mL
- F [3]: 22.1% and 35.2% and 97.7%
- Tmax [3]: 4.00 h
- F (SD rats, PO 5 mg/kg, DMSO/PEG-400/Milli-Q water formulation, mean of 3 animals): 51.7%
- concentration at 0.033 h (1 mg/kg, SD rats, IV 1 mg/kg, DMSO/PEG-400/Milli-Q water formulation, 0.033 h, individual animals): 475 ng/mL
- concentration at 0.033 h (1 mg/kg, SD rats, IV 1 mg/kg, DMSO/PEG-400/Milli-Q water formulation, 0.033 h, mean of 3 animals): 483 ng/mL
